{"source": "patent US20260215432A1", "about": "“ANTIMICROBIAL CONJUGATED OLIGOELECTROLYTES AND METHODS THEREOF” (National University of Singapore, priority 2023, published 2026)", "key": {"[1]": {"test_system": "E. coli. K12 (ATCC 10798)", "test": "MIC, broth microdilution in CA-MHB", "format": "cell-based", "settings": "for MIC E. coli K12: ATCC 10798, Table 7", "method": "(§1) Antimicrobial activity was screened against a range of pathogens made up of clinically relevant ESKAPE pathogens by determination of the minimum inhibitory concentration (MIC) in cation-adjusted Mueller-Hinton broth (CA-MHB).\n(§2) Minimum inhibitory concentrations of COEs were determined through a broth microdilution method in accordance with the Clinical and Laboratory Standards Institute (CLSI) guidelines M07-A10. A single bacterial colony was isolated from an overnight culture and grown to mid-log phase (OD600~0.8). Compounds were prepared as a stock solution in DMSO and diluted in a sterile flat-bottom 96-well plate in CA-MHB. Subsequent concentrations were prepared by two-fold dilution of the initial solution. An equivalent volume of bacteria was added to the compound to a final concentration of 5×10^5 cfu/mL. Plates were incubated at 37° C. for 16-18 hours, and read at OD600 using a microplate reader (TECAN Spark®). […] MIC values were determined for each compound in triplicate."}, "[2]": {"test_system": "methicillin-resistant S. aureus (USA300)", "test": "MIC of compounds 1-5", "format": "cell-based", "settings": "USA300, Table 7", "method": "as §2, with “triplicate. For each test, Polymyxin B (Gram-negative) or vancomycin (Gram-positive) was used as a positive control.” for “triplicate.”"}, "MRSA": {"test_system": "MRSA", "test": "Resistance development by serial passaging at 0.5× MIC", "format": "cell-based, S. aureus", "method": "(§3) The non-specific action of membrane-active antibiotics lends itself to minimal development of resistance development due to the large metabolic burden involved, unlike traditional antibiotics with a well-defined enzymatic target. Based on this premise, we passaged bacteria incubated with DM6P, or ciprofloxacin (control), at 0.5× MIC to investigate the adaptation of bacteria towards external antibiotic stress. As a control, treatment of MRSA with ciprofloxacin gave rise to antibiotic-resistant mutants within 4 passages, see FIG. 4a. […] Combined with its broad spectrum of activity, this feature opens opportunities for the use of COE antimicrobial agents to address polymicrobial infections with a lower rate of emerging antibiotic resistance."}, "P. aeruginosa": {"test_system": "P. aeruginosa", "test": "Resistance development by serial passaging at 0.5× MIC", "format": "cell-based", "method": "as §3"}, "A. baumanii (ATCC 17978)": {"test_system": "A. baumanii (ATCC 17978)", "test": "MIC, broth microdilution in CA-MHB", "format": "cell-based", "settings": "CA-MHB", "method": "as §1, §2"}, "E. facium (ATCC 19434)": {"test_system": "E. facium (ATCC 19434)", "test": "MIC, broth microdilution in CA-MHB", "format": "cell-based", "settings": "CA-MHB", "method": "as §1, §2"}, "[3]": {"test_system": "E. faecalis OG1RF (ATCC 47077)", "test": "MIC, broth microdilution in CA-MHB", "format": "cell-based", "settings": "CA-MHB", "method": "as §1, §2"}, "[4]": {"test_system": "K. pneumoniae (carbapenem-resistant Enterobacterales) (ATCC BAA1705)", "test": "MIC, broth microdilution in CA-MHB", "format": "cell-based", "settings": "CA-MHB", "method": "as §1, §2"}, "[5]": {"test_system": "Methicillin-resistant S. aureus (ATCC BAA1717)", "test": "MIC, broth microdilution in CA-MHB", "format": "cell-based", "method": "as §1, §2"}, "[6]": {"test_system": "P. aeruginosa (ATCC47085)", "test": "MIC, broth microdilution in CA-MHB", "format": "cell-based", "settings": "CA-MHB", "method": "as §1, §2"}, "S. aureus (ATCC 29213)": {"test_system": "S. aureus (ATCC 29213)", "test": "MIC, broth microdilution in CA-MHB", "format": "cell-based", "method": "as §1, §2"}, "[7]": {"test_system": "M. abscesses (ATCC 19977)", "test": "MIC against mycobacterium in Middlebrook 7H9 broth", "format": "cell-based, M. abscessus", "method": "We also examined non-tuberculous mycobacteria (NTM). These are opportunistic pathogens that are rising in clinical significance due to their increasing prevalence and treatment difficulty. The membrane of Mycobacterium is inherently a greater antibiotic permeability barrier due to its high lipid content relative to other pathogens and long-tailed mycolic acids that contributed to its high lipophilic character. The antimicrobial activity of the TPP analogues were also evaluated against Mycobacterium in Middlebrook 7H9 broth."}, "[8]": {"test_system": "A549 (lung epithelial cells)", "test": "Cytotoxicity against mammalian cell line", "format": "cell-based", "method": "The cytotoxicity of the TPP COEs was also tested against a mammalian cell line (A549)."}, "SA": {"test_system": "SA", "test": "MIC in physiological-mimicking environments (MHB)", "format": "cell-based, S. aureus", "source_text": "(§4) The complexities of the physiological environment often influence drug activity, particularly when cations in solution are implicated in their oligomerization-dependent mechanisms of action, such as for daptomycin. Binding of free drug to plasma proteins effectively reduces the available free concentration of the drug capable of killing bacteria, resulting in lower observable activity. We tested MIC values of DM4P and DM6P in the presence of human serum albumin (40 g L^−1) and high salt concentrations (Table 4). Under these conditions, the antimicrobial activity was minimally affected by these environmental factors, with MICs remaining within a 2-fold level."}, "PA": {"test_system": "PA", "test": "MIC in physiological-mimicking environments (MHB)", "format": "cell-based, P. aeruginosa", "source_text": "as §4"}, "[9]": {"settings": "phosphate-buffered saline; below 10 μg mL^−1 estimated by turbidimetric screening", "description": "The solubility of all the TPP derivatives was determined in phosphate-buffered saline (PBS) (Table S3)."}}}
{"smiles": "[I-].[I-].c1ccc([P+](CCCCCCCCOc2ccc(/N=N/c3ccc(OCCCCCCCC[P+](c4ccccc4)(c4ccccc4)c4ccccc4)cc3)cc2)(c2ccccc2)c2ccccc2)cc1", "note": "[Compound 3]", "values": [{"measurement": "MIC E. coli K12", "setting": "[1]", "result": 32, "unit": "µg/mL"}, {"measurement": "MIC MRSA", "setting": "[2]", "result": 4, "unit": "µg/mL"}]}
{"smiles": "C(=C\\c1cc(OCCC[P+](c2ccccc2)(c2ccccc2)c2ccccc2)cc(OCCC[P+](c2ccccc2)(c2ccccc2)c2ccccc2)c1)/c1ccc(/C=C/c2cc(OCCC[P+](c3ccccc3)(c3ccccc3)c3ccccc3)cc(OCCC[P+](c3ccccc3)(c3ccccc3)c3ccccc3)c2)cc1.[I-].[I-].[I-].[I-]", "note": "[Compound 5]", "values": [{"measurement": "MIC E. coli K12", "setting": "[1]", "result": 64, "unit": "µg/mL"}, {"measurement": "MIC MRSA", "setting": "[2]", "result": 32, "unit": "µg/mL"}]}
{"smiles": "O=C(O)c1cn(C2CC2)c2cc(N3CCNCC3)c(F)cc2c1=O", "note": "[ciprofloxacin, reference compound]", "values": [{"measurement": "passages until antibiotic-resistant mutants arise", "setting": "MRSA", "result": "≤ 4", "unit": "passages"}, {"measurement": "resistance development", "setting": "P. aeruginosa", "result": "this development occurred at a slower rate"}]}
{"smiles": "COc1cc(/C=C/c2ccc(OCCCC[P+](c3ccccc3)(c3ccccc3)c3ccccc3)c(OC)c2)ccc1OCCCC[P+](c1ccccc1)(c1ccccc1)c1ccccc1.[I-].[I-]", "note": "[DM4P]", "values": [{"measurement": "MIC AB", "setting": "A. baumanii (ATCC 17978)", "result": 4, "unit": "µg/mL"}, {"measurement": "MIC EC", "setting": "[1]; CA-MHB", "result": 4, "unit": "µg/mL"}, {"measurement": "MIC FAC", "setting": "E. facium (ATCC 19434)", "result": 1, "unit": "µg/mL"}, {"measurement": "MIC FAE", "setting": "[3]", "result": 1, "unit": "µg/mL"}, {"measurement": "MIC KP", "setting": "[4]", "result": 8, "unit": "µg/mL"}, {"measurement": "MIC MRSA", "setting": "[5]; CA-MHB", "result": 2, "unit": "µg/mL"}, {"measurement": "MIC", "setting": "[5]; towards MRSA, Table 3", "result": 2, "unit": "µg/mL"}, {"measurement": "MIC PA", "setting": "[6]", "result": 8, "unit": "µg/mL"}, {"measurement": "MIC SA", "setting": "S. aureus (ATCC 29213)", "result": 2, "unit": "µg/mL"}, {"measurement": "MIC M. abscesses", "setting": "[7]", "result": 8, "unit": "µg/mL"}, {"measurement": "IC50", "setting": "[8]", "result": 9, "unit": "µg/mL"}, {"measurement": "MIC CaCl2", "setting": "SA; CaCl2 1 mM", "result": 2, "unit": "µg/mL"}, {"measurement": "MIC MgCl2", "setting": "SA; MgCl2 1.25mM", "result": 2, "unit": "µg/mL"}, {"measurement": "MIC NaCl", "setting": "SA; NaCl 300 mM", "result": 4, "unit": "µg/mL"}, {"measurement": "MIC HSA", "setting": "SA; human serum albumin 40 g L^−1", "result": 2, "unit": "µg/mL"}, {"measurement": "MIC —", "setting": "SA; no additive", "result": 2, "unit": "µg/mL"}, {"measurement": "MIC CaCl2", "setting": "PA; CaCl2 1 mM", "result": 8, "unit": "µg/mL"}, {"measurement": "MIC MgCl2", "setting": "PA; MgCl2 1.25mM", "result": 8, "unit": "µg/mL"}, {"measurement": "MIC NaCl", "setting": "PA; NaCl 300 mM", "result": 4, "unit": "µg/mL"}, {"measurement": "MIC HSA", "setting": "PA; human serum albumin 40 g L^−1", "result": 8, "unit": "µg/mL"}, {"measurement": "MIC —", "setting": "PA; no additive", "result": 8, "unit": "µg/mL"}, {"measurement": "solubility in PBS", "setting": "[9]", "result": 138, "unit": "µg/mL"}]}
